Experimental data: the supplement of paper PMC13380429

Columns and labels:
[1] = system: A549-ACE2 infected with SARS-CoV-2; assay: cell count relative to DMSO; higher = less toxic; conditions: 24 h
[2] = system: A549-ACE2 infected with SARS-CoV-2; assay: morphology score (similarity to uninfected cells); higher = more like uninfected cells; conditions: 24 h
HepG2 [3] = assay: relative viability EC50 (midpoint between 100% and the lowest measured viability); higher = less toxic; conditions: 72 h
Caco-2 [4] = assay: as above; conditions: 72 h
Vero E6 [5] = assay: as above; conditions: 72 h
U2OS [6] = assay: as above; conditions: 72 h
[7] = system: A549-ACE2 infected with SARS-CoV-2; assay: SARS-CoV-2 infection rate relative to DMSO; higher = more infection; conditions: 24 h
HepG2 [8] = assay: cell viability relative to DMSO; higher = less toxic; conditions: 72 h
Caco-2 [9] = assay: as above; conditions: 72 h
Calu-3 [10] = assay: as above; conditions: 72 h
Vero E6 [11] = assay: as above; conditions: 72 h
U2OS [12] = assay: as above; conditions: 72 h
A549-ACE2 = assay: drug-induced phospholipidosis relative to tamoxifen; higher = more phospholipidosis
HepG2 [13] = assay: drug sensitivity score (DSS) for viability; higher = more toxic; extreme values may be limits of the assay; conditions: 72 h
Caco-2 [14] = assay: as above; conditions: 72 h
Calu-3 [15] = assay: as above; conditions: 72 h
Vero E6 [16] = assay: as above; conditions: 72 h
U2OS [17] = assay: as above; conditions: 72 h
Calu-3 [18] = assay: relative viability EC50 (midpoint between 100% and the lowest measured viability); higher = less toxic; conditions: 72 h

c1cnc2c([O][Ga]([O]c3cccc4cccnc34)[O]c3cccc4cccnc34)cccc2c1 [gallium-triquinolin-8-olate]
Conditions	SARS-CoV-2 infection rate, [7] [%]	cell count, [1] [%]	cell viability, Caco-2 [9] [%]	cell viability, Calu-3 [10] [%]	cell viability, HepG2 [8] [%]	cell viability, U2OS [12] [%]	cell viability, Vero E6 [11] [%]	morphology score, [2]
1 nM	–	–	94.3	95.9	96.5	97	116	–
10 nM	–	–	104	111	102	105	103	–
100 nM	–	–	89.1	97.6	118	100	106	–
0.3 µM	98	103	–	–	–	–	–	0.25
1000 nM	–	–	116	110	97.1	102	102	–
3 µM	50	73	–	–	–	–	–	0.64
10 µM	23	69	–	–	–	–	–	0.75
10000 nM	–	–	6.6	51.7	2.2	19.7	87.7	–
30 µM	23	35	–	–	–	–	–	0.35

Conditions	drug sensitivity score	relative viability EC50 [µM]
Caco-2 [4]	–	3.85
Caco-2 [14]	4.3	–
Calu-3 [15]	2	–
HepG2 [3]	–	2.96
HepG2 [13]	5.8	–
U2OS [6]	–	3.34
U2OS [17]	4.2	–
Vero E6 [5]	–	> 10
Vero E6 [16]	0	–

drug-induced phospholipidosis [%], A549-ACE2
Conditions	0.3 µM	0.833333 µM	3.33333 µM
24 h	3.04	1.03	-5.09
48 h	1.4	-0.94	–
72 h	3.03	0.0941	–

COC(=O)C[C@](O)(CCC(C)(C)O)C(=O)O[C@@H]1C(OC)=C[C@]23CCCN2CCc2cc4c(cc2[C@H]13)OCO4 [harringtonine]
Conditions	SARS-CoV-2 infection rate, [7] [%]	cell count, [1] [%]	cell viability, Caco-2 [9] [%]	cell viability, Calu-3 [10] [%]	cell viability, HepG2 [8] [%]	cell viability, U2OS [12] [%]	cell viability, Vero E6 [11] [%]	morphology score, [2]
1 nM	–	–	108	93.2	103	95.9	105	–
10 nM	–	–	94.6	98.7	108	99.2	100	–
100 nM	–	–	73.5	81	45.7	46.8	109	–
0.3 µM	5	92	–	–	–	–	–	0.57
1000 nM	–	–	56.3	34.9	11.1	11	34.2	–
3 µM	21	62	–	–	–	–	–	0.26
10 µM	12	50	–	–	–	–	–	0.27
10000 nM	–	–	53.6	24.9	0.3	0.9	9.1	–
30 µM	33	37	–	–	–	–	–	0.29

Conditions	drug sensitivity score	relative viability EC50 [µM]
Caco-2 [14]	11.3	–
Calu-3 [15]	14.3	–
Calu-3 [18]	–	0.233
HepG2 [3]	–	0.0934
HepG2 [13]	24.5	–
U2OS [6]	–	0.0946
U2OS [17]	23.5	–
Vero E6 [5]	–	0.686
Vero E6 [16]	12.6	–

A549-ACE2, 24 h
Conditions	drug-induced phospholipidosis [%]
0.3 µM	0.19
0.833333 µM	-6.78

O=C(C[S+]([O-])Cc1ccco1)NC/C=C\COc1cc(CN2CCCCC2)ccn1 (stereo unspecified) [lafutidine]
Conditions	drug sensitivity score	relative viability EC50 [µM]
Caco-2 [4]	–	> 10
Caco-2 [14]	0	–
Calu-3 [15]	0	–
Calu-3 [18]	–	> 10
HepG2 [3]	–	> 10
HepG2 [13]	0	–
U2OS [6]	–	> 10
U2OS [17]	0	–
Vero E6 [5]	–	> 10
Vero E6 [16]	0	–

cell viability [%]
Conditions	Caco-2 [9]	Calu-3 [10]	HepG2 [8]	U2OS [12]	Vero E6 [11]
1 nM	91.5	91.4	98.3	99.3	101
10 nM	91.3	106	95.4	100	100
100 nM	97.6	95.6	97.9	96.9	100
1000 nM	97	93.2	105	102	93.5
10000 nM	90.6	92.3	104	94.8	96.1

N#CC(c1ccc(Cl)cc1)c1c(Cl)cc(-n2ncc(=O)[nH]c2=O)cc1Cl (stereo unspecified) [diclazuril]
Conditions	drug sensitivity score	relative viability EC50 [µM]
Caco-2 [4]	–	> 10
Caco-2 [14]	0	–
Calu-3 [15]	0	–
Calu-3 [18]	–	> 10
HepG2 [3]	–	> 10
HepG2 [13]	0	–
U2OS [6]	–	> 10
U2OS [17]	0	–
Vero E6 [5]	–	> 10
Vero E6 [16]	0	–

cell viability [%]
Conditions	Caco-2 [9]	Calu-3 [10]	HepG2 [8]	U2OS [12]	Vero E6 [11]
1 nM	100	98	101	98.6	99.4
10 nM	93.7	84.7	102	98.5	100
100 nM	107	94.2	121	95.7	92.2
1000 nM	86.3	92.9	110	94.8	95.8
10000 nM	110	107	91	100	109

CCCCN1CCC(CNC(=O)c2c3n(c4ccccc24)CCCO3)CC1 [piboserod]
Conditions	drug sensitivity score	relative viability EC50 [µM]
Caco-2 [4]	–	> 10
Caco-2 [14]	0	–
Calu-3 [15]	0.2	–
Calu-3 [18]	–	> 10
HepG2 [3]	–	> 10
HepG2 [13]	0	–
U2OS [6]	–	> 10
U2OS [17]	0	–
Vero E6 [5]	–	> 10
Vero E6 [16]	0	–

cell viability [%]
Conditions	Caco-2 [9]	Calu-3 [10]	HepG2 [8]	U2OS [12]	Vero E6 [11]
1 nM	96	108	94.2	97.7	93.1
10 nM	99.8	91.9	106	98.7	92.7
100 nM	96.9	102	106	97.7	95
1000 nM	99	104	98.5	101	91.4
10000 nM	93.4	83	95.5	91.9	95.9

CC[C@H](Nc1ncnc2[nH]cnc12)c1nc2cccc(F)c2c(=O)n1-c1ccccc1 [idelalisib]
Conditions	drug sensitivity score	relative viability EC50 [µM]
Caco-2 [4]	–	> 10
Caco-2 [14]	0.3	–
Calu-3 [15]	0	–
Calu-3 [18]	–	> 10
HepG2 [3]	–	> 10
HepG2 [13]	0.1	–
U2OS [6]	–	> 10
U2OS [17]	0	–
Vero E6 [5]	–	> 10
Vero E6 [16]	0.2	–

cell viability [%]
Conditions	Caco-2 [9]	Calu-3 [10]	HepG2 [8]	U2OS [12]	Vero E6 [11]
1 nM	95.4	106	104	91.2	99
10 nM	98.1	104	94	101	95
100 nM	96.6	85.8	108	94.1	96
1000 nM	101	103	97.3	95.6	87.5
10000 nM	83.7	89.5	88.5	93.9	89.5
